Columns and labels:
[1] = WaterLOGSY NMR direct binding to heparin agarose; conditions: 1D 1H WaterLOGSY
Experimental: Figure 6 (a) Chemical structures of triprotonated SICHI and CSIC02–04, as the main species in aqueous medium at neutral pH, and relative increase in MB absorbance at 665 nm versus charge ratio after the addition of the peptoids to the preformed MB/heparin complex (4.71 µM Hep repeating units + 9.83 µM MB in 5 mM Tris buffer at pH = 7.5). (b) 1D ^1H WaterLOGSY NMR experiments showing that CSIC02 binds to heparin agarose resin (used as a GAG mimetic).
As a simple way to characterize the GAG binding behavior, we applied the method previously described by Jiao et al., using the cationic dye known as methylene blue (MB) in a colorimetric competition assay. […] Next, we assessed the integrity and solubility of CSIC02 by NMR. […] Direct binding of CSIC02 to GAGs was qualitatively assessed by specific NMR experiments.
Next, 1D ^1H T1ρ relaxation filtered and WaterLOGSY NMR experiments were acquired at 25 °C on a 500-MHz spectrometer (Varian Inova; Agilent Technologies, Santa Clara, CA, USA) equipped with an AutoX inverse double-resonance probe with a z-shielded pulsed-field gradient coil. […] The experiments were recorded using the standard pulse sequence in the (WLOGSY_ES) Chempack library, with excitation sculpting to suppress water resonances. […]

[2] = NMR competition (WaterLOGSY / spin-lock filtered 1H): displacement of FS2/FS3 peptides from heparin agarose resin; format: binding; conditions: WaterLOGSY; 1:1 peptoid/FS2, both 1 mM; pH 7.5
Experimental: NMR competition experiments involved the acquisition of 1D-^1H WaterLOGSY or spin-lock filtered NMR spectra. Thus, FS2 peptide is displaced from heparin agarose resin by CSIC02 (1:1 peptoid/FS2, both 1 mM), but not by CSIC03 (Figure S15). […] We reasoned that if CSIC02 was able to interact with GAG and displace FS2/FS3 basic peptides, it may also interfere with SCTWT–heparin interaction. To investigate if CSIC02 could displace SCTWT from heparin dp14 and to define the SCTWT residues affected, 2D NMR ^1H-^15N HSQC CSP experiments were used. Figure 8a illustrates the chemical shift effects of CSIC02 addition to a sample of SCTWT containing dp14 heparin. […] In Figure 8b, we display the chemical shift perturbation of SCTWT NMR spectra in the presence of dp14 and CSIC02. Thus, as the two CSP plots in Figure 4b and Figure 8b were calculated using as reference SCTWT alone in solution, we can compare them directly. […] Moreover, splitting of signals for some residues (R733, R734, and Q735 in the first GAG-binding region) was observed (Figure 8c). This observation is compatible with the presence of different species in slow chemical exchange in solution, with partial detachment of SCTWT from heparin. The amount of CSIC02 used in these experiments can be rationalized considering that the SCTWT has ca. 12 positive charges at neutral pH (Figure S18), while CSIC02 is tricationic. Since the binding is mediated by ionic polar interactions, a large excess of CSIC02 is needed to counterbalance the SCTWT-dp14 binding.
Next, 1D ^1H T1ρ relaxation filtered and WaterLOGSY NMR experiments were acquired at 25 °C on a 500-MHz spectrometer (Varian Inova; Agilent Technologies, Santa Clara, CA, USA) equipped with an AutoX inverse double-resonance probe with a z-shielded pulsed-field gradient coil. The samples were prepared in a 5-mm Wilmad NMR 528-PP tubes with 10 mM Tris-d11 (for peptide/GAG samples) and 150 mM NaCl dissolved in 90% H2O/10% D2O at pH 7.5. All spectra were obtained with a sweep width of 8 kHz and 16,384 acquired data points. The experiments were recorded using the standard pulse sequence in the (WLOGSY_ES) Chempack library, with excitation sculpting to suppress water resonances. For Water-LOGSY experiments, the first water-selective 180° pulse was 25 ms long. The spectra were acquired with 1200 transients and a spin-lock pulse of 50 ms at 3.7 kHz. To phase Water-LOGSY spectra correctly, it is necessary to use an internal reference compound. In our case, the reference is the residual ethanol absorbed/bonded in heparin-agarose resin (this interaction was previously confirmed with T1ρ filtered experiments), which appears as a positively phased signal. […]

[3] = Concentration-dependent 1H NMR and DOSY NMR (aggregation); format: physicochemical; conditions: DOSY NMR and spectra at increasing concentrations
Excerpt: As a simple way to characterize the GAG binding behavior, we applied the method previously described by Jiao et al., using the cationic dye known as methylene blue (MB) in a colorimetric competition assay. To compare with our previous results for SICHI, we performed similar experimental design and data analysis, using the charge excess at 50% of MB displacement (CE50) as the parameter to compare the respective binding abilities. The four peptoids rendered very similar CE50 values (CE50 = 1.5–1.8, Figure 6a), reflecting the equivalent charge states. However, CSIC02 reached saturation (complete MB displacement) with a lower number of equivalents, which can be due to its slightly larger molecular size that may cause a more efficient interference with MB binding. Next, we assessed the integrity and solubility of CSIC02 by NMR. To characterize its tendency to aggregate in aqueous solution, NMR spectra at increasing concentrations were acquired which show the same sharp signals under all conditions (Figure S13). […] Direct binding of CSIC02 to GAGs was qualitatively assessed by specific NMR experiments.
Figure S13. Concentration-dependent NMR spectra of CSIC02 and 1H DOSY NMR spectrum of 0.2 mM CSIC02 in presence of 0.5 mM caffeine. […] The spectra were processed with MNova software and the measured diffusion coefficients from DOSY […]

binding to heparin agarose (qualitative) [1]: binding
displacement of FS2 peptide from heparin agarose resin [2]: displaced
Structure (SMILES): CCN(CC)CCN(CC(=O)N(CCN1CCCC1)CC(=O)N(CCC1CCCN1C)CC(N)=O)C(=O)OCc1ccccc1 (stereo not drawn) [CSIC02]
tendency to aggregate in aqueous solution [3]: absence of higher molecular weight aggregates

From article PMC8465649, “Semaphorin 3A—Glycosaminoglycans Interaction as Therapeutic Target for Axonal Regeneration” (Pharmaceuticals, 2021)
